Activity calls are given as the source filed them.
Legend:
[1] = OVCAR8 cell viability loss – plate reader, dry powder samples, PAX8 project, dose response (AID 743197); assay type: functional, cell-based; conditions: OVCAR-8
[2] = HIV-1 AD8 envelope cell-cell fusion blockers – cherry-pick, dose response (AID 652062); assay type: functional, cell-based;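 further: luciferase signal from cell-cell fusion driven by HIV-1 clade B AD8 Env; potency is for inhibitors of fusion seen as a drop in luminescence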
[3] = viability loss in CEM21 cells – cell-based, CellTiter-Glo luminescence, cherry-picked, cytotoxicity control for viral fusion inhibitor project, dose response (AID 652042); assay type: functional;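 further: potency for signal decrease meaning cytotoxicity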
[4] = blockers of HIV-1 envelope-mediated cell-cell fusion – cherry-pick, dose response (AID 652057); assay type: functional, cell-based
[5] = target: Paired box protein Pax-8 (Homo sapiens, UniProt Q06710); assay: PAX8 transcriptional activity inhibition in RMG-I – RMG-I cells, luciferase, cherry-pick, dose response (AID 687027); assay type: functional, cell-based;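 further: luciferase reporter driven by Pax8 target thyroperoxidase promoter measured by SteadyGlo luminescence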
[6] = target: T1, Trace amine-associated receptor 1 (Homo sapiens, UniProt Q96RJ0); assay: Fluorescence-based cell-based high throughput dose response assay to identify agonists of the human trace amine associated receptor 1 (TAAR1).; assay type: functional
T1 sequence (Q96RJ0 whole entry): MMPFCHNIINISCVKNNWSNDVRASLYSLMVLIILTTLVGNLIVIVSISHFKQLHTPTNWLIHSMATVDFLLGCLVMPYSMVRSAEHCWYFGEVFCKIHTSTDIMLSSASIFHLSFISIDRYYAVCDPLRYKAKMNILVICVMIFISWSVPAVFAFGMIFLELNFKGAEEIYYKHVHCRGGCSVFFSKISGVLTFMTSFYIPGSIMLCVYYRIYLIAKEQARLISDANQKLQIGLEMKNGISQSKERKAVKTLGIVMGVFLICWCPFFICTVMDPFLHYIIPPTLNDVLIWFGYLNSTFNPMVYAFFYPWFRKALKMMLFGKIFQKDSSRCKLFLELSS

[7] = cells; assay type: functional, cell-based
[8] = Trypanosoma cruzi growth suppression in host cells – NIH3T3 host cells, beta-gal luminescence, confirmation (AID 2044); assay type: functional, cell-based;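 further: intracellular parasites grown in NIH/3T3 mouse fibroblasts as host cells; luminescent beta-galactosidase reporter signal from transgenic T. cruzi replicating inside host cells; inhibitors lower the luminescence signal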
[9] = target: T1, Trace amine-associated receptor 1; assay: Counterscreen for agonists of the human trace amine associated receptor 1 (hTAAR1): Fluorescence-based cell-based high throughput dose response assay to identify hTAAR1 agonist that also desensitize TAAR1 receptor response.; assay type: functional
[10] = cells; assay type: functional, cell-based; remark: listed apart in the source
[11] = NIH3T3 cell viability loss – ATP luminescence, mouse fibroblasts, counter-screen, dose response (AID 2010); assay type: functional, cell-based;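 further: cells exposed to compound for about 90 hours before reading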
[12] = target: Glucose-6-phosphate 1-dehydrogenase (Homo sapiens, UniProt P11413); assay: inhibition of Homo sapiens G6PD, dose series – biochemical, fluorescence, selectivity assay for P. falciparum G6PD inhibitor project, dose response (AID 504792); assay type: functional
[13] = target: T2, Rac GTPase-activating protein 1 (Homo sapiens, UniProt Q9H0H5); assay: blockers of MgcRacGAP-driven Rac1 GTP hydrolysis – biochemical, ADP Hunter fluorescence, primary and confirmatory, confirmation (AID 624330); assay type: functional
T2 sequence (Q9H0H5 whole entry): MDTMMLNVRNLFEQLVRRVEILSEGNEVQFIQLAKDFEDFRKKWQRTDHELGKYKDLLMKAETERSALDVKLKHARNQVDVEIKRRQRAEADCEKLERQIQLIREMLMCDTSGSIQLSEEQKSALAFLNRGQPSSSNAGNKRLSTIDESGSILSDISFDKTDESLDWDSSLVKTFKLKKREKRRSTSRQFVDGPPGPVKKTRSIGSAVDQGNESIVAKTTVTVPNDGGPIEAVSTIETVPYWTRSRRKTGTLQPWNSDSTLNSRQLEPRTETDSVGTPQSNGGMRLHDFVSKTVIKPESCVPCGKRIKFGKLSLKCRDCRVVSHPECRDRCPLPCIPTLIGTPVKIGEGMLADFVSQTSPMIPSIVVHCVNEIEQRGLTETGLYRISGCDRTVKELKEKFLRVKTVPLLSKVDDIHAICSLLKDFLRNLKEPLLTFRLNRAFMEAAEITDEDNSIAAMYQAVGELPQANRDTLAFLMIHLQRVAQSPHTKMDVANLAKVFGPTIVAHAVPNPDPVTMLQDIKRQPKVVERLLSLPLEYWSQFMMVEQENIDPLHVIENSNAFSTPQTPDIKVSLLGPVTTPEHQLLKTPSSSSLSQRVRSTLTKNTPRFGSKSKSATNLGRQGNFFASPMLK

[14] = Fluorescence-based cell-based high throughput dose response assay for inhibitors of the interaction of nucleotide-binding oligomerization domain containing 2 (NOD2) and the receptor-interacting serine-threonine kinase 2 (RIPK2).; assay type: functional; conditions: Homo sapiens
[15] = target: T3, Hexokinase (Trypanosoma brucei, UniProt Q38C41); assay: Confirmation assay for inhibitors of Trypanosoma brucei hexokinase 1-Analogue-first series. [Related pubchem assays (depositor defined):AID1430, AID1632, AID2516, AID2560, AID2579, AID2600, AID449725, AID492951]; assay type: functional
T3 sequence (Q38C41 whole entry): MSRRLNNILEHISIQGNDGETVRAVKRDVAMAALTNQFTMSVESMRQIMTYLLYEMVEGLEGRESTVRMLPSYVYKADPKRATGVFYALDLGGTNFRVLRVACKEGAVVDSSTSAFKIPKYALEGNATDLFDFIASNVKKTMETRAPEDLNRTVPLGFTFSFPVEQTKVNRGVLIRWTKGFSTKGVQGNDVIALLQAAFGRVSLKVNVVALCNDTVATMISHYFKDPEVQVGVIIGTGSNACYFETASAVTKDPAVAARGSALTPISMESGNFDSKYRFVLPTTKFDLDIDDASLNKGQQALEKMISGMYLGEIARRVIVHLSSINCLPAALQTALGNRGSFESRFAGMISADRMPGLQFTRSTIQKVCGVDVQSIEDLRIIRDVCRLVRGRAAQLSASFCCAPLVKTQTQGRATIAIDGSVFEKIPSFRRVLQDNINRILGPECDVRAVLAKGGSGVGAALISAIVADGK

[16] = Counterscreen for activators of the function of SWI/SNF related, matrix associated, actin dependent regulator of chromatin, subfamily a, member 2 (SMARCA2, BRM): Luminescence-based cell-based high throughput dose response assay to identify non-selective compounds using the VP16 reporter assay.; assay type: functional
[17] = target: SWI/SNF-related matrix-associated actin-dependent regulator of chromatin subfamily A member 2 (Homo sapiens, UniProt P51531); assay: Luminescence-based cell-based high throughput dose response assay to identify activators of the function of SWI/SNF related, matrix associated, actin dependent regulator of chromatin, subfamily a, member 2 (SMARCA2, BRM).; assay type: functional
[18] = target: Beta Lactamase (Pseudomonas aeruginosa, UniProt Q932Y6); assay: BLA reporter interference, concentration series – BLA reporter cells, FRET fluorescence, artefact control for NOD2-RIPK2 interaction inhibitor project, dose response (AID 651552); assay type: functional, cell-based
[19] = A cytotoxicity screen of small molecule inhibitors of the PhoP region in Salmonella typhi identified in the primary screen. [Related pubchem assays: 1850, 1864, 1985 ]; assay type: functional
[20] = target: T4, Sentrin-specific protease 8 (Homo sapiens, UniProt Q96LD8); assay type: functional
T4 sequence (Q96LD8 whole entry): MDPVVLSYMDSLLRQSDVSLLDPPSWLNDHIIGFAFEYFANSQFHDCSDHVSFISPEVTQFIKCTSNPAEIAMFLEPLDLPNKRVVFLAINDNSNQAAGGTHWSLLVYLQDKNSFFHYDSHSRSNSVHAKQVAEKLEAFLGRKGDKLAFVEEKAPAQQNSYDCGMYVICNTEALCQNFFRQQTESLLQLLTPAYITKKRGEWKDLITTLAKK

[21] = target: T4, Sentrin-specific protease 8; assay type: functional; remark: listed apart in the source
[22] = tested on: Streptococcus; assay: GAS UMAA2166 growth inhibition – luminescence, BacTiterGlo, counter-screen for streptokinase expression inhibitor project, dose response (AID 1915); assay type: functional, organism-based;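 further: potency for reduction of bacterial viability or growth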
[23] = target: T5, Streptokinase A (Streptococcus pyogenes serotype M1, UniProt P10520); assay: viability-normalized secreted streptokinase activity reduction – plasminogen activation absorbance, OD405, dose response (AID 1914); assay type: functional, Streptococcus pyogenes M1 GAS;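 further: secreted streptokinase activity via plasminogen activation per viability signal from cell pellet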
T5 sequence (P10520 whole entry): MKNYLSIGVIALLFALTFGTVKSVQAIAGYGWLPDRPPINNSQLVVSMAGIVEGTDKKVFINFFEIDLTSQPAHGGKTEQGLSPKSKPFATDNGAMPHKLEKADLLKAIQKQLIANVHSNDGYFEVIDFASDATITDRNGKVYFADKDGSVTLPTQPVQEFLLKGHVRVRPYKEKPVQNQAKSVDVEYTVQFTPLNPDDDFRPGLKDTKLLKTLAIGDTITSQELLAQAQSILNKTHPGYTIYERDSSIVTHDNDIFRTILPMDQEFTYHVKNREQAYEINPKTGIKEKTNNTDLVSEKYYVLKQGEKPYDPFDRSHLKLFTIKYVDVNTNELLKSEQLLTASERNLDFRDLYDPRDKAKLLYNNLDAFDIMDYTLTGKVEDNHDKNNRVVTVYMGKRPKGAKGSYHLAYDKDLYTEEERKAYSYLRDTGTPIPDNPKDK

[24] = tested on: Streptococcus sp. 'group A'; assay: Streptococcus pyogenes SK(-)GAS viability under kanamycin – luminescence, BacTiterGlo, confirmation, counter-screen for streptokinase expression inhibitor project, dose response (AID 1900); assay type: functional, organism-based
[25] = target: T6, Heat shock factor protein 1 (Mus musculus, UniProt P38532); assay: enhancement of HSF1-driven luciferase signal – cell-based, NIH3T3, luminescence, dose retest, confirmation (AID 435004); assay type: functional;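 further: stress induced by proteasome inhibitor MG132 added 30 min after compound; luciferase reporter driven by HSF1 response element in NIH3T3 cells; actives raise luminescence as potentiators of the MG132 stress response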
T6 sequence (P38532 whole entry): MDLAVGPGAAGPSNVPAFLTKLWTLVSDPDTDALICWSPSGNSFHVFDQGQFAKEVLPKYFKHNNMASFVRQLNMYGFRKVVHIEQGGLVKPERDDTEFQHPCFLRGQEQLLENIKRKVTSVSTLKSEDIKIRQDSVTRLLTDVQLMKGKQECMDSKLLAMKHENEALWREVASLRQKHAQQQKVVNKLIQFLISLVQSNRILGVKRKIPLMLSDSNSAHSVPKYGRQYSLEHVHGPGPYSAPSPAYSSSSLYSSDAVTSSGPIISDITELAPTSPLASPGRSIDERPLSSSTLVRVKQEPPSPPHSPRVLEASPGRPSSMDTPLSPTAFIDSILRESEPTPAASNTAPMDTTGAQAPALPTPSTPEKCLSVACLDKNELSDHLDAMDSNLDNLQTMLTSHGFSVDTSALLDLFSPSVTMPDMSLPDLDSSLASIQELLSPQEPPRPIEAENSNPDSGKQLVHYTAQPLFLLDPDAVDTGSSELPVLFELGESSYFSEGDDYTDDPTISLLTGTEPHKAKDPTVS

[26] = viability loss in HeLa cells – cytotoxicity control for MgcRacGAP inhibitor project, dose response (AID 624300); assay type: functional

Chain of Paired box protein Pax-8 (Q06710 whole entry): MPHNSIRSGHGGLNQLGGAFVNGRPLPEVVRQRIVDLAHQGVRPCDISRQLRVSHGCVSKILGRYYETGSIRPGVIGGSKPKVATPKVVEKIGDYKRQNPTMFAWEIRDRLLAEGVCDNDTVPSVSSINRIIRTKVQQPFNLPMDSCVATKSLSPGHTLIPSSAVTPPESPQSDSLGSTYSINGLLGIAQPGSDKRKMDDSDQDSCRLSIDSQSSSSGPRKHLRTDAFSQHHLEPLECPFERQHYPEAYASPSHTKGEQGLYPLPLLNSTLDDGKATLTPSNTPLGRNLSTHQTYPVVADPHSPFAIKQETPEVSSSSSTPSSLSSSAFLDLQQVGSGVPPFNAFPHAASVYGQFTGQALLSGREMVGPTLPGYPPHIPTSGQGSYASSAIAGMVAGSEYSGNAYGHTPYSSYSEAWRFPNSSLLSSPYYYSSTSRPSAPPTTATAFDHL
Chain of Glucose-6-phosphate 1-dehydrogenase (P11413 whole entry): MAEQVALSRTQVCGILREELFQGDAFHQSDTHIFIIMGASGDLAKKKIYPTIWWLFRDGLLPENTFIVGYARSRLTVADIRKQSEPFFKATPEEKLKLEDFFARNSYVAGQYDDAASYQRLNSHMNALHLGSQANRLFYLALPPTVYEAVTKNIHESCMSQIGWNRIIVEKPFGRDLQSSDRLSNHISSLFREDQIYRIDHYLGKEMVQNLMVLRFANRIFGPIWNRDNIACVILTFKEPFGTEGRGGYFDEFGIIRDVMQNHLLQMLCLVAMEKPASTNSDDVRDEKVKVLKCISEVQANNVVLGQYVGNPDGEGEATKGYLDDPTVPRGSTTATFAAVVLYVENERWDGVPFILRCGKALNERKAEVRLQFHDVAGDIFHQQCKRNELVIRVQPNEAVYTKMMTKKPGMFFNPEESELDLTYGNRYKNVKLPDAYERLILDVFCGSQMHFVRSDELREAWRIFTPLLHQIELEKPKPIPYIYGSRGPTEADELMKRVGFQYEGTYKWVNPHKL
Chain of SWI/SNF-related matrix-associated actin-dependent regulator of chromatin subfamily A member 2 (P51531 whole entry): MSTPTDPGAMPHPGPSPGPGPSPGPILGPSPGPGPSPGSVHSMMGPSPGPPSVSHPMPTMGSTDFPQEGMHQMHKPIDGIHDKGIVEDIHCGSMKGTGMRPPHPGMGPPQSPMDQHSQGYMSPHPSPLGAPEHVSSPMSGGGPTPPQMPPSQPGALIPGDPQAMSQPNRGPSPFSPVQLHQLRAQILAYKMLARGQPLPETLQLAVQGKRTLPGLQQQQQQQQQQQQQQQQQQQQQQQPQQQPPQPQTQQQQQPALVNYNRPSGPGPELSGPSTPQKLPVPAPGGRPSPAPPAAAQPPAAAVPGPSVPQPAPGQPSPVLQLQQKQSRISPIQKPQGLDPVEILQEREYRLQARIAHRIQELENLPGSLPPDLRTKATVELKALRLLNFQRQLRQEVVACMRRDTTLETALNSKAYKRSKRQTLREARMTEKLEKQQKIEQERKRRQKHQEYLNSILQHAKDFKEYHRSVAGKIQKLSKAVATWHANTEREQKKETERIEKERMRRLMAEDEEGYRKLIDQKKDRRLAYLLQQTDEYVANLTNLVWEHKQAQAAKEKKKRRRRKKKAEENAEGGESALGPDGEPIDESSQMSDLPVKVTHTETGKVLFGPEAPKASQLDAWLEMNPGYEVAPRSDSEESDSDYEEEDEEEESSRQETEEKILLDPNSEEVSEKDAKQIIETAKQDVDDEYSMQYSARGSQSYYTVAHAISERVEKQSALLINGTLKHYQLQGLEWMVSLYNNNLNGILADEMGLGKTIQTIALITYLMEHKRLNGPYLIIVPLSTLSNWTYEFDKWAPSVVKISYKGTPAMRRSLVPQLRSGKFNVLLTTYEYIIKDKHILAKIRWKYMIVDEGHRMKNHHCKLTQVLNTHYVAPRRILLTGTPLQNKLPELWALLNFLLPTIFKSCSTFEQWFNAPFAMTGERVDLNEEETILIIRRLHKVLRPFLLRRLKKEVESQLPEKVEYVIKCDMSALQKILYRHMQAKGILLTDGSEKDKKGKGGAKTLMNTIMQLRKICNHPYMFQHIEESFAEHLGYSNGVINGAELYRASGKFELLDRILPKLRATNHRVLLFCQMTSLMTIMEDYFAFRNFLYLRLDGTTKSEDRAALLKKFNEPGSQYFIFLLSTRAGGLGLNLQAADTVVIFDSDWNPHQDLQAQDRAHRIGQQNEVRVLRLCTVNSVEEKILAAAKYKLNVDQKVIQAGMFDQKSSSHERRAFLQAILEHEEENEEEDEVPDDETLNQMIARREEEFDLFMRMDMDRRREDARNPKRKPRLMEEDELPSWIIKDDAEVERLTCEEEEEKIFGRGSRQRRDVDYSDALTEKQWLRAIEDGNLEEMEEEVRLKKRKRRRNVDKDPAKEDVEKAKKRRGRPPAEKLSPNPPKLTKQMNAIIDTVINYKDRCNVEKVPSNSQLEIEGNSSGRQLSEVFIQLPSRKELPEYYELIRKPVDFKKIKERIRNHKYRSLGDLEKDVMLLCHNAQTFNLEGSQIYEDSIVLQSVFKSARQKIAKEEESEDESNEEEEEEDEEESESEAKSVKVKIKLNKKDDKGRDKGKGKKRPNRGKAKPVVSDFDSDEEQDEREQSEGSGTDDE
Chain of Beta Lactamase (Q932Y6 whole entry): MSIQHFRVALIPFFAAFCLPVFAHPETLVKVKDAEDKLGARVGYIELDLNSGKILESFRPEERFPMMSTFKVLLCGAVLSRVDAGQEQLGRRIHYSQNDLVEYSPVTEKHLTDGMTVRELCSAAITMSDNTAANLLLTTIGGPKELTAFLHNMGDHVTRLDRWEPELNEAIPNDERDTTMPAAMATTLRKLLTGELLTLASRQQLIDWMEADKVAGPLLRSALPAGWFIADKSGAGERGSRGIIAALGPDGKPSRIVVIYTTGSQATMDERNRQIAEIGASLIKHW

COc1cccc(S(=O)(=O)N(C)C[C@@H]2OCc3ccccc3-c3c(n(C)c4ccccc34)C(=O)N([C@@H](C)CO)C[C@@H]2C)c1
AC50 [1]: > 70 µM (inactive) | AC50 [2]: 19.2 µM (active) | AC50 [3]: 34.8 µM (active) | AC50 [4]: 16.5 µM (active) | AC50 [5]: 5.8 µM (active)

CCCOc1ccc(OCCOCCN2CCc3ccccc3C2)cc1
EC50 [6]: 2.08 µM (active) | IC50 [7]: > 29.9 µM (inactive) | EC50 [8]: 0.205 µM (active) | IC50 [9]: > 3.32 µM (active) | EC50 [10]: > 29.9 µM (inactive) | EC50 [11]: > 30 µM (not active)

O=C(Cn1sc2ccccc2c1=O)Nc1ccc(F)cc1
IC50 [12]: 14.9 µM (active) | IC50 [13]: 56.2 µM (active) | IC50 [14]: 9.51 µM (active) | IC50 [15]: 6.23 µM (active) | EC50 [16]: > 91.1 µM (inactive) | EC50 [17]: > 91.1 µM (inactive) | IC50 [18]: 19.3 µM (inactive)

O=[N+]([O-])c1ccc(/C=[N+](\[O-])CCO)o1
EC50 [19]: > 50 µM (active) | IC50 [20]: 43.4 µM (active) | IC50 [21]: 16.7 µM (active) | EC50 [22]: 9.91 µM (active) | EC50 [23]: > 150 µM (not active) | EC50 [24]: 3.97 µM (active)

O=S(=O)(c1ccc(Cl)c(NC(=S)N/N=C/c2ccc(O)cc2)c1)N1CCOCC1
IC50 [13]: 47.6 µM (active) | EC50 [25]: > 260 µM (inactive) | CC50 [26]: 45.7 µM (active)

COc1cccc(S(=O)(=O)N2CC3(CN(C(=O)Nc4cccc(F)c4)[C@@H](CO)c4[nH]c5cc(OC)ccc5c43)C2)c1
AC50 [2]: 27.1 µM (active) | AC50 [3]: 26.1 µM (active) | AC50 [4]: 0.986 µM (active)
